{"source": "patent US9598441B2", "about": "“Therapeutic compounds and methods” (Wayne State University, priority 2011, dated 2017)", "key": {"apoptosis of HBC cells": {"system": "apoptosis of HBC cells", "experiment": "ELISA-based DNA fragmentation apoptosis assay", "type": "cell-based, human", "procedure": "For apoptosis ELISA assay, 4−5×10^2 cells were seeded in 96-well plates and treated essentially as indicated in the MTT assay above. Untreated as well as treated cells were lysed, and levels of mono and oligo-nucleosomal DNA fragments in the lysates were determined by measuring optical density of each sample at 405 nm and 495 nm wavelengths. […] For TUNEL labeling, the cells were treated with various agents, fixed, labeled and photographed essentially as detailed in immuno-localization protocols described before (Zhang, L., Levi, E., Majumder, P., Yu, Y., Aboukameel, A., Du, J., Xu, H., Mohammad, R. M., Hatfield, J. S., Wali, A., Adsay, V., Majumdar, A. P. N., and Rishi, A. K. (2007) Mol. Cancer. Ther. 6(5), 1661-1672). […] Cell lysates derived from vehicle DMSO (Control) or CFM-4-treated cells were added to the wells that had immobilized fluorogenic caspase-3, caspase-8, caspase-9, or caspase-2 substrates. The fluorescence released from the activated caspase-dependent cleavage of respective substrate was detected by a plate reader at the excitation and emission wavelengths of 380 nm and 460 nm, respectively.\nCFM-4 suppresses cell growth in part by inducing apoptosis: In light of the data in FIG. 5A showing significant accumulation of CFM-4-treated cells in the sub G0 phase, and the fact that cells undergoing apoptosis often accumulate in the sub G0 fractions, it was next ascertained the extent of apoptosis stimulation by these agents by utilizing an ELISA-based DNA fragmentation assay. […] The intrinsic, mitochondria-mediated and the extrinsic, extracellular receptor-activated, apoptosis signaling pathways are transduced by activation of various caspases that promote eventual breakdown of cellular proteins, organelles and plasma membrane. […] It was next determined whether apoptosis stimulation by CFM-4 involved activation of caspases 8 or 9 or both. […] The activation of caspases in the presence of CFM-4 was further profiled by utilizing a fluorescence-based quantitative assay as detailed in methods. […]"}, "cell cycle progression": {"system": "cell cycle progression", "experiment": "Flow-cytometric cell cycle analysis (propidium iodide)", "type": "cell-based", "procedure": "FIGS. 5A-5D: CFM-4 suppresses cell growth in part by elevating CARP-1 and diminishing cyclin B1 levels. In panel A, cells were treated with indicated agents for noted times, labeled with propidium iodide, and sorted by flow cytometry. Histogram and table below represent cell numbers in various phases of cell cycle. In panel B, cells were treated with indicated dose of CFM-4 for noted times, in panel C, cells were either untreated (−) or treated (+) with CFM-4 for noted dose and time, while in panel D, cells were either treated with vehicle control (DMSO) or with indicated agents for noted dose and time. The cell lysates (50 μg/lane) in panels B-D were analyzed by WB for levels of CARP-1, Cyclin B1, Cdh1, APC-2, CDKIs p21^WAF1/CIP1, p27^KIP1 and actin proteins as in methods.\nCARP-1 is required for CFM-4-dependent cell growth inhibition. Because APC/C E3 ubiquitin ligase functions to regulate cell cycle and CFM-4 binds with CARP-1 to inhibit its binding with APC-2, it was next determined whether the SMIs interfere with cell cycle progression. […] The APC/C^Cdc20 E3 ubiquitin ligase regulates turnover of the mitotic cyclin B1 and Cdc20 during the G2M phase and exit to mitosis while APC/C^Cdh1 E3 ligase targets Cdc20 as well as SCF ligase to accomplish exit from mitosis and transition to G0/G1 phases. Attenuation of SCF ligase by APC/C^Cdh1, in turn, results in elevated levels of CDKIs p21^WAF1/CIP1 and p27^KIP1. […] To investigate this possibility it was determined whether CFM-4 binding with CARP-1 modulated CARP-1 levels. […] Levels of both the p21^WAF1/CIP1 and p27^KIP1 CDKIs were elevated when cells were exposed to CFM-4 for 0.5-1.0 h time periods (FIG. 5B). This may likely be due to the initial response of the cells to stress following exposure to CFM-4. […] This loss of CDKI expression could be due to attenuation of APC/C^Cdh1 activity following modest reduction in the Cdh1 levels as well as inability of CARP-1 to bind with APC-2 over prolonged periods of treatments with CFM-4. […]"}}}
{"smiles": "COc1cccc2c1C(=O)c1c(O)c3c(c(O)c1C2=O)C[C@@](O)(C(=O)CO)C[C@@H]3O[C@H]1C[C@H](N)[C@H](O)[C@H](C)O1", "note": "[ADR, adriamycin, reference compound]", "values": [{"measurement": "apoptosis level (DNA fragmentation ELISA)", "setting": "apoptosis of HBC cells", "value": "significantly elevated levels of apoptosis"}, {"measurement": "cell cycle effect (flow cytometry)", "setting": "cell cycle progression", "value": "induced G2M cell cycle arrest"}]}
{"smiles": "Cc1cc(Br)cc2c1NC(=O)/C2=C1\\SC(=S)NC1=O", "note": "[CFM-1, (Z)-5-(5-bromo-7-methyl-2-oxoindolin-3-ylidene)-2-thioxothiazolidin-4-one]", "values": [{"measurement": "apoptosis level (DNA fragmentation ELISA)", "setting": "apoptosis of HBC cells", "value": "without significant increase in apoptosis"}, {"measurement": "cell cycle effect (flow cytometry)", "setting": "cell cycle progression", "value": "induced G2M cell cycle arrest"}]}
{"smiles": "O=C1N(Cc2ccccc2Cl)c2ccccc2C12NN=C(c1ccccc1)S2", "note": "(stereo not drawn) [CFM-4, 1-(2-chlorobenzyl)-5′-phenyl-3′H-spiro[indoline-3,2′-[1,3,4]thiadiazol]-2-one]", "values": [{"measurement": "apoptosis level (DNA fragmentation ELISA)", "setting": "apoptosis of HBC cells", "value": "significantly elevated levels of apoptosis"}, {"measurement": "cell cycle effect (flow cytometry)", "setting": "cell cycle progression", "value": "induced G2M cell cycle arrest"}]}
